From paper PMC11945542 (Viruses, 2025)
“Also recorded” adds a separate entry of the source. Like-named read-outs stand apart in the source and are kept apart here.

What was measured:
SARS-CoV-2 [1] = test: microbe, parasite or virus in culture; format: cell-based; details: Calu-3 cells, 48 h, immunofluorescence of infected cells
[2] = system: herpes simplex virus (HSV) 1 MacIntyre; format: cell-based, herpes simplex virus 1
[3] = system: Zika virus (ZIKV) FSS13025; format: cell-based
[4] = system: chikungunya virus (CHKV) 181/25; format: cell-based
[5] = system: Rift Valley fever virus (RVFV); format: cell-based; details: A549 cells, primary screening, 100 to 0.4 µM, 16 h post infection
human adenovirus (HAdV) = test: microbe, parasite or virus in culture; format: cell-based, human adenovirus serotype 11 (RCAd11pGFP)
TIE-2 [6] = molecular target: T1, TIE-2 (Homo sapiens, UniProt Q02763); test: Vanadate-induced TIE-2 receptor phosphorylation in CHO cells; format: cell-based; design: host or cells: Chinese hamster ovary (CHO) cells; details: Chinese hamster ovary (CHO) cells, read-out: IC50, vanadate-induced inhibition of TIE-2 receptor phosphorylation
T1 sequence (Q02763 23-1124): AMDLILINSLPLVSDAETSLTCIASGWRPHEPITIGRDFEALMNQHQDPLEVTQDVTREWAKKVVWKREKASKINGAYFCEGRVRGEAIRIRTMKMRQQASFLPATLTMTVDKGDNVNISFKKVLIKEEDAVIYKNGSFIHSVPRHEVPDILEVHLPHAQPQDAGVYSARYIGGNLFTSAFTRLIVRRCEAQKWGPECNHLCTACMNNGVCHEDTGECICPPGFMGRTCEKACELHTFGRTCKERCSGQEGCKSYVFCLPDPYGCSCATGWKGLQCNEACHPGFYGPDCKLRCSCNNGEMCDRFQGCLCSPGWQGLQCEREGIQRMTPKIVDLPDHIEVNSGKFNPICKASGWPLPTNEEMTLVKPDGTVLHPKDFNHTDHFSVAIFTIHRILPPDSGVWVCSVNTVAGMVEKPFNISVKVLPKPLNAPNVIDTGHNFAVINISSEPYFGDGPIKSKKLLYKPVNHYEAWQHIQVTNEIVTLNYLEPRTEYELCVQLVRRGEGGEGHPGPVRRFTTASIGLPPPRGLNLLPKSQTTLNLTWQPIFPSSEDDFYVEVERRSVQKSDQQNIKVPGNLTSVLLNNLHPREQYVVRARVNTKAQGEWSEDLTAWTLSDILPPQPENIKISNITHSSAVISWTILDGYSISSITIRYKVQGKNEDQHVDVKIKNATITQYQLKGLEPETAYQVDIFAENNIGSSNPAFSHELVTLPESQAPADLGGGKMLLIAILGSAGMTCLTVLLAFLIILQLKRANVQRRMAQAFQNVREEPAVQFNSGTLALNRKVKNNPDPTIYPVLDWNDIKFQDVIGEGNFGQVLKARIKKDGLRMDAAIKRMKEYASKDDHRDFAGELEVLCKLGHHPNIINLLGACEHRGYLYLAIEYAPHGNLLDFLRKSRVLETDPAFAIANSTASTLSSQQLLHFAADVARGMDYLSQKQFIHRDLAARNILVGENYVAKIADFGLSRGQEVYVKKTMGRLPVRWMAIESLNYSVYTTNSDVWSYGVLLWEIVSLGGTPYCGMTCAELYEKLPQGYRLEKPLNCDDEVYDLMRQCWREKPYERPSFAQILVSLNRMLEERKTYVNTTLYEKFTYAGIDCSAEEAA

[7] = system: Herpes simplex virus (HSV) 2 MS; format: cell-based, herpes simplex virus 2
[8] = system: influenza virus (INFV) H1N1 A/California/07/09; format: cell-based; details: read-out: IC50 against influenza virus; Vero cells, MOI 0.01, 35 °C, TPCK trypsin
adenovirus 5 (HAdV5) = test: microbe, parasite or virus in culture; format: cell-based; details: read-out: IC50 against HAdV type 5
[9] = system: dengue virus (DNV) serotype 2 D2Y98P; test: microbe, parasite or virus in culture; format: cell-based, dengue virus serotype 2; details: read-out: IC50 against dengue virus type 2
SARS-CoV-2 [10] = test: microbe, parasite or virus in culture; format: cell-based; details: for IC50: read-out: IC50 against SARS-CoV-2
[11] = system: human cytomegalovirus (HCMV) Merlin strain; test: HCMV infectivity assay in human foreskin fibroblasts; format: cell-based; details: 5 days, column of table headed IC50 [µM]
MAPK11 = MAPK11 (Homo sapiens, UniProt Q15759); test: Kinase inhibition profile: MAPK11; format: biochemical; details: kinase inhibition profile (DSTT, Cerep); preliminary
Chain of MAPK11 (Q15759 whole entry): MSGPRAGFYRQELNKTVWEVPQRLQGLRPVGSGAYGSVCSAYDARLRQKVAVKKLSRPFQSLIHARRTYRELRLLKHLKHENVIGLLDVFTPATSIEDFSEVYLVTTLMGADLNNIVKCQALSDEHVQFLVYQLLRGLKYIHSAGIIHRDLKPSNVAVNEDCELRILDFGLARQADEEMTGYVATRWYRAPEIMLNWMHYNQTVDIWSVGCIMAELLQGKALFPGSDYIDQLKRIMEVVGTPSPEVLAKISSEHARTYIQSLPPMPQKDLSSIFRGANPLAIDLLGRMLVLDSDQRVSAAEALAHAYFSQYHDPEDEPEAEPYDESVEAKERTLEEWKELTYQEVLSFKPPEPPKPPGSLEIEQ

CDK8 = CDK8 (Homo sapiens, UniProt P49336); test: Kinase inhibition profile: CDK8; format: biochemical; details: kinase inhibition profile (DSTT, Cerep); preliminary
Chain of CDK8 (P49336 whole entry): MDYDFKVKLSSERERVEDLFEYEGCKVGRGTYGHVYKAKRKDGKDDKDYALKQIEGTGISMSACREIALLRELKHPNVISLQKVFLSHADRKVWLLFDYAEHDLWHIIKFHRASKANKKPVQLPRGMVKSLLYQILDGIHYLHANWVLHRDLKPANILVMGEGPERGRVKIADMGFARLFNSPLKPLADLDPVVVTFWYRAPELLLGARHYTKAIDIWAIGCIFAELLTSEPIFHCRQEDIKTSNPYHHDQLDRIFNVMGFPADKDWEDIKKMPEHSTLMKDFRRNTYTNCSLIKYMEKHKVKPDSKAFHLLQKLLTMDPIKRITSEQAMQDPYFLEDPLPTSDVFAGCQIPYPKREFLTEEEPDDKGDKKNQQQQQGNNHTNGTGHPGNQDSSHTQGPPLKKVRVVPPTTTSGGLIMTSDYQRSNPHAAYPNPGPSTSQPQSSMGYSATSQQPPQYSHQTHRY
Chain of CDK8 (P24863 whole entry partner): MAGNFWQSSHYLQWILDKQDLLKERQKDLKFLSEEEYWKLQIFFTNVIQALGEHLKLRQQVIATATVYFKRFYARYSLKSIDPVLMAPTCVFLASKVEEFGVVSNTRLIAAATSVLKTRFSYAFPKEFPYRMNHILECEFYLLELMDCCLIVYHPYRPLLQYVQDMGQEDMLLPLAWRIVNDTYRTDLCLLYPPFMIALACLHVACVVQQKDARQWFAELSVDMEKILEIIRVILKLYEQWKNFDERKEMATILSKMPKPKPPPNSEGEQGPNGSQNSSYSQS

MAPK14 = MAPK14 (Homo sapiens, UniProt Q16539); test: Kinase inhibition profile: MAPK14; format: biochemical; details: kinase inhibition profile (DSTT, Cerep); preliminary
Chain of MAPK14 (Q16539 whole entry): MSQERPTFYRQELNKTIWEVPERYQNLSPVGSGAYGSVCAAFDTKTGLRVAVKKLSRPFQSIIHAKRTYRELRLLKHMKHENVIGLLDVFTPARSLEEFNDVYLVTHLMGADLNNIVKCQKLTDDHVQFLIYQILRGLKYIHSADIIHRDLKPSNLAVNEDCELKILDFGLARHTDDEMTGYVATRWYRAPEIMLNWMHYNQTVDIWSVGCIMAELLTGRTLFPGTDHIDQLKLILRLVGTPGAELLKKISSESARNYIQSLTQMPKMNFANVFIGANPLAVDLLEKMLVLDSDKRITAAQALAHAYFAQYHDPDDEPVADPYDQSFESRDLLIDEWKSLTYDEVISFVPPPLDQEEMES

SARS-CoV-2 [12] = format: in vivo, mice (B6.Cg-Tg(K18-ACE2)2Prlmn/J); details: K18-ACE2 mice, oral b.i.d., vs placebo
SARS-CoV-2 [13] = test: Primary human mucociliary airway (ALI) SARS-CoV-2 infection model; format: cell-based; details: tested at 10 µM
TIE-2 [14] = molecular target: T1, TIE-2; test: Kinase inhibition profile: TIE-2; format: biochemical; details: kinase inhibition profile (DSTT, Cerep); preliminary
KDR = KDR (Homo sapiens, UniProt P35968); test: Kinase inhibition profile: KDR
Chain of KDR (P35968 20-1356): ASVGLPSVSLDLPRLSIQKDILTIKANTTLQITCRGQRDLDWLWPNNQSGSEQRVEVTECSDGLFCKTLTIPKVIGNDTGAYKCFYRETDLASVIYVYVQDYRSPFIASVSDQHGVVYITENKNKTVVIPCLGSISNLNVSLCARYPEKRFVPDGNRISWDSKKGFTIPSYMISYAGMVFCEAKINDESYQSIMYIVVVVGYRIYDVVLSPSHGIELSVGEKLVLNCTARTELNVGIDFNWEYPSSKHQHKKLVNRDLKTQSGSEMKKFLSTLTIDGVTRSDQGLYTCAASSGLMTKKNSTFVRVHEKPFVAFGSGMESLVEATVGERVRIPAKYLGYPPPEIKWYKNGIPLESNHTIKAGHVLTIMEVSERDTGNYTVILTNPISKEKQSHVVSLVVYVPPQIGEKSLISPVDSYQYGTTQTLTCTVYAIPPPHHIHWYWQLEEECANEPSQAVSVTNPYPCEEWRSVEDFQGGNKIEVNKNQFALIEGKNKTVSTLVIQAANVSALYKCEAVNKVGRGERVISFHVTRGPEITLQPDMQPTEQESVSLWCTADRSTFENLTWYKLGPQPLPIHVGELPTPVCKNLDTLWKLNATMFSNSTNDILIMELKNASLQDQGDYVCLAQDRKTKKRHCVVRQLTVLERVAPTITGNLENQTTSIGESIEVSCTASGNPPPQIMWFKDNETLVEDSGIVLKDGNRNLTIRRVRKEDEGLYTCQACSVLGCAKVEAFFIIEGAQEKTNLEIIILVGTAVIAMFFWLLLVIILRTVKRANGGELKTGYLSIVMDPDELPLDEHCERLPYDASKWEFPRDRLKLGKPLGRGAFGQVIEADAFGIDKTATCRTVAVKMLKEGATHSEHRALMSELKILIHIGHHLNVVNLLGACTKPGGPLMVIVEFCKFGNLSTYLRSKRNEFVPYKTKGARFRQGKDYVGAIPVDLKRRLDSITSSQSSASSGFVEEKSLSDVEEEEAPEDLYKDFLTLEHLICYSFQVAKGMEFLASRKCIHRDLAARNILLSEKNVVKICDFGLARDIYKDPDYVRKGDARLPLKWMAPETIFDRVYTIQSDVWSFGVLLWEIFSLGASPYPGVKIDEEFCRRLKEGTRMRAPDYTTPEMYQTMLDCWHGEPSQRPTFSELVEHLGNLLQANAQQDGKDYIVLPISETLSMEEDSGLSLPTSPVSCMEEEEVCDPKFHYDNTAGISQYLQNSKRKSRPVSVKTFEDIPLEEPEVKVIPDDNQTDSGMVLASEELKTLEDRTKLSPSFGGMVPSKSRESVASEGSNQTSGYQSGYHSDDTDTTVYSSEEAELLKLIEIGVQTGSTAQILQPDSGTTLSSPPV

[15] = 60 mg/kg (Figure 7), 100 mg/kg (methods)

SMILES	activity against HSV-1 [2]	activity against ZIKV [3]	antiviral activity against RVFV (in words) [5]	IC50 (TIE-2 [6]) [nM]	activity against HSV-2 [7]	IC50 [8] [nM]	IC50 (adenovirus 5 (HAdV5); Human mastadenovirus C, Vero) [nM]	IC50 (adenovirus 5 (HAdV5)) [nM]	IC50 ([9]; Dengue virus, Vero) [nM]	IC50 [9] [nM]	antiviral activity against HAdV (in words) (human adenovirus (HAdV))	other results
CNC(=O)c1cc(Oc2ccc(NC(=O)Nc3cc(C(F)(F)F)ccc3-n3cncn3)cc2)ccn1 [Compound 1]	Not Active	Not Active	antiviral activity was seen at 25 µM	27	Active	39500	1160	1160	8430	8430	–	IC50 against SARS-CoV-2 (SARS-CoV-2 [1]): did not exhibit antiviral properties; activity against CHKV [4]: Not Active; EC50 (human adenovirus (HAdV); Human adenovirus sp., A549, 24 h, read-out: EC50 against HAdV): 4500 nM; SI (selectivity index) (SARS-CoV-2 [10]; HeLa-ACE2 cells): 5; IC50 (SARS-CoV-2 [10]; Severe acute respiratory syndrome coronavirus 2, HeLa-ACE2, 24 h): 3200 nM; activity against HCMV [11]: Active
CNC(=O)c1cc(Oc2ccc(NC(=O)Nc3cc(C(F)(F)F)ccc3-n3ccnc3)cc2)ccn1 [Compound 2]	–	–	dose–response antiviral activity	–	–	–	–	–	–	–	did not have activity	IC50 (TIE-2 [6]; unit given as nm): 3 nM
O=C(Nc1ccc(Oc2ccncc2)cc1)Nc1cc(C(F)(F)F)ccc1-n1cncn1 [Compound 3]	–	–	most potent compound	36	–	–	–	–	–	–	most potent compound	host cell toxicity by visual observation (A549 cells): displayed host cell toxicity at the highest concentrations
CNC(=O)c1cc(Oc2ccc(NC(=O)Nc3cc(C)c(Cl)cc3-n3cccc3)cc2)ccn1 [Compound 4]	Not Active	dose-dependent activity; also recorded: Active	–	126	dose-dependent activity; also recorded: Active	10700	600	630	10	12	–	IC50 (MAPK11): 430 nM; IC50 (SARS-CoV-2 [1]; Severe acute respiratory syndrome coronavirus 2, read-out: IC50 against SARS-CoV-2): 7700 nM; activity against CHKV ([4]; Vero cells, MOI 0.01, column of table headed IC50 [µM]): Not Active; IC50 (CDK8): 31 nM; IC50 (MAPK14): 87 nM; animal survival after lethal SARS-CoV-2 challenge (SARS-CoV-2 [12]; [15]): protective effect on animal survival; also recorded: increased survival; body weight loss after infection (SARS-CoV-2 [12]; [15]): reduced body weight loss; viral titers in lungs (SARS-CoV-2 [12]; days 1, 3 and 6 after infection, qRT-PCR): statistically significant reduction in viral titers; also recorded: reduced viral load in lungs; inhibition of SARS-CoV-2 replication in primary human mucociliary airway model (SARS-CoV-2 [13]): showed activity; IC50 (SARS-CoV-2 [10]; Severe acute respiratory syndrome coronavirus 2, HeLa-ACE2 cells, 24 h, immunofluorescence of infected cells): 500 nM; inhibition of TIE-2 (in words) (TIE-2 [14]): strong inhibition; IC50 (KDR): 7.9 nM
